# How the values were obtained:
# [1] = target: recombinant 17bHSD4 (M1-N311) (Homo sapiens (Human), UniProt P51659); assay: In Vitro 17bHSD4 Enzyme Assay; type: biochemical; settings: 40 nM 17bHSD4, 0.125 mM NAD, 15 μM Estradiol, 1.5 h; NADH fluorescence; read-out: 17HSD17b4 Enzyme assay IC50
# Procedure: In Vitro 17bHSD4 Enzyme Assay
# 10 concentration of compounds (0.2 μl) in DMSO was added to GREINER FLUOTRAC 200 384 well plate (781076) using ECHO dispensing (BECKMAN COULTER). 80 nl of 10 mM Estradiol (SIGMA, E8875) was added using Echo dispensing. The enzyme reaction was initiated by addition, using MULTIDROP COMBI dispensing (THERMO FISHER), of 40 μl of a mix containing recombinant 17bHSD4 (M1-N311) and NAD. Final assay conditions were 40 nM of 17bHSD4, 0.125 mM of NAD, 15 μM Estradiol and various concentrations of compound in buffer (5 mM EDTA (TEKNOVA E0306), 0.01% DDM (AFFYMETRIX D310) in 50 mM Tris-Cl, pH 7.4). After each addition plates were centrifuged for 1 min at 150×g (EPPENDORF, 5810R, A-4-81). NADH formation was measured by fluorescence intensity (FI) (Ex360/Em460) at time zero (to) and at 1.5 h (t1) in a PHERASTAR FSX (BMG LABTECH). FI for each sample was calculated as FI at t1 minus FI at t0.
# (§1) […] […] was used for curve fitting and calculation of IC50 values.
# (§2) Compound effect was calculated with the formula below;
# (§3) where X represents the effect in the presence of test compound, min is DMSO and max is the maximum inhibition of enzyme using a known inhibitor as control.
# [2] = target: over expressed HSD17β13 in HEK293S cells (Homo sapiens (Human), UniProt Q7Z5P4); assay: In Vitro 17bHSD13 Cell Assay; type: cell-based; settings: HEK293S cells over expressing HSD17β13; estradiol to estrone conversion, 18 h, LC-MS/MS; read-out: 17bHSD1713 Cell assay IC50
# Procedure: In Vitro 17bHSD13 Cell Assay
# Inhibition of 17bHSD13 was measured in a cell-based assay with over expressed HSD17β13 in HEK293S cells, measuring estradiol to estrone conversion by LCMS/MS.
# Samples were analyzed using LC-MS/MS.
# (§4) SCIEX LC-MS/MS system: Sample was injected with CTC analytical injector, SHIMATZU LC pumps LC20 and analysed on the SCIEX API 5000 LCMSMS system with the following settings. […] The mobile phases consist of A (water with 0.2% formic acid) and B (acetonitrile with 0.2% formic acid). The LC gradient profile is as follows: 50% B during 0 to 0.5 min, a linear increase to 100% B during 0.5 to 1 min, hold at 100% B during 1 to 1.6 min then back to 50% B from 1.6 to 2 min. […] Detection was performed on a API 5000 LC/MS/MS system with a triple quadrupole mass spectrometer, a TURBO V ion source, in multiple reaction monitoring (MRM) mode at positive polarity with APCI probe. […] The dwell times were 100 ms for each transition and a depolarization and collision energy of 100 and 40, respectively. Data from MS signals was using area under curve (AUC). Ratio=Estrone/(Estrone+Estradiol)
# as §1, §2, §3
# [3] = target: recombinant 17bHSD13 (N2-K300) (Homo sapiens (Human), UniProt Q7Z5P4); assay: In Vitro 17bHSD13 Enzyme Assay; type: biochemical; settings: 80 nM 17bHSD13, 0.5 mM NAD, 20 μM Estradiol, 2.5 h; estradiol to estrone by LC-MS/MS
# Procedure: In Vitro 17bHSD13 Enzyme Assay
# The enzyme reaction was initiated by addition, using CERTUS-FLEX dispenser (GYGER), of 20 μl of substrate solution containing NAD (SIGMA, N1511) and Estradiol (SIGMA, E8875). […] Final assay conditions were 80 nM of 17bHSD13, 0.5 mM of NAD, 20 μM Estradiol and various concentrations of compound in buffer (5 mM EDTA (TEKNOVA E0306), 0.01% DDM (AFFYMETRIX D310) in 50 mM Tris-Cl, pH 7.4).
# as §4, with “analyzed” for “analysed”
# as §1, §2, §3
# [4] = target: over expressed HSD17β9 in HEK293S cells (Homo sapiens (Human), UniProt Q92781); assay: In Vitro 17bHSD9 Cell Assay; type: cell-based; settings: HEK293S cells over expressing HSD17β9; retinol to retinal conversion, 18 h, LC-MS/MS; read-out: 17bHSD9 Cell assay IC50
# Procedure: In Vitro 17bHSD9 Cell Assay
# Inhibition of 17bHSD9 was measured in a cell-based assay with over expressed HSD17β9 in HEK293S cells, measuring retinol to retinal conversion by LCMS/MS.
# Cells were plated in 384 well plates (GREINER CELL culture plate 384w black/clear Poly-D-Lysine) at 10 K c/w in 30 μl of culture media (DMEM with GLUTAMAX plus 10% FBS). […] After 18 h of cell culturing for 20 μl of media was transferred using BRAVO dispensing robot (AGILENT) to a GREINER PP 384 well plate (781280) and 40 μl of 50% acetonitrile was added. Samples were analyzed using LC-MS/MS.
# SCIEX LC-MS/MS system: Sample was injected with CTC analytical injector, SHIMATZU LC pumps LC20 and analysed on the SCIEX API 5000 LCMSMS system with the following settings. Samples were chromatographed on a WATERS, symmetry, C8, 3.5 μm, 2.1×50 mm) column at constant flow rate of 0.5 mL/min. The mobile phases consists of A (water with 0.2% formic acid) and B (acetonitrile with 0.2% formic acid). The LC gradient profile is as follows: 50% B during 0 to 0.1 min, a linear increase to 100% B during 0.1 to 0.8 min, hold at 100% B during 0.8 to 1.5 min then back to 50% B from 1.5 to 1.6 min and hold during run time. The run time was 2 min with retention times of approximately 1.54 and 1.62 min for Retinol and Retinal, respectively. Detection was performed on a API 5000 LC/MS/MS system with a triple quadrupole mass spectrometer, a TURBO V ion source, in multiple reaction monitoring (MRM) mode at positive polarity with ESI probe. The MRM pairs were m/z 269.3 to m/z 93.0 and m/z 285.2 to 161.0. for Retinol and Retinal, respectively. The dwell times were 100 ms for each transition and a depolarization and collision energy of 50 and 25, respectively. Data from MS signals was using area under curve (AUC). Ratio=Retinal/(Retinal+Retinol).
# as §1, §2, §3
# Sequence of over expressed HSD17β13 in HEK293S cells (Q7Z5P4 20-300): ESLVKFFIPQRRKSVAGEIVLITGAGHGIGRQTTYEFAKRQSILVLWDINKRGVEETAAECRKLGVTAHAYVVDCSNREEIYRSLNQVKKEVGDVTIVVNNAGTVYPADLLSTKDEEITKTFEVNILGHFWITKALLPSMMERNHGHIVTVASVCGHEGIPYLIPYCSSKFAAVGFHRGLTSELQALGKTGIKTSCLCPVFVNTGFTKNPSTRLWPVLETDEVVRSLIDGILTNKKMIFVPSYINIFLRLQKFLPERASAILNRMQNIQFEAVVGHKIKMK
# Sequence of recombinant 17bHSD13 (N2-K300) (Q7Z5P4 2-300): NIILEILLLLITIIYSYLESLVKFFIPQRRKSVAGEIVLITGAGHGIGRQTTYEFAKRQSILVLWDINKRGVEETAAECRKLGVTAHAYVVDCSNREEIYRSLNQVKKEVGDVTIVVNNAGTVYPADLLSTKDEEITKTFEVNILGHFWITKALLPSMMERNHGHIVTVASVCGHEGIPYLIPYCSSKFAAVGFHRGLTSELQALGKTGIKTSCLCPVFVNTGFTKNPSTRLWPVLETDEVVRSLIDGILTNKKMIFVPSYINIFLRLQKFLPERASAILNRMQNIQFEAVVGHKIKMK
# Sequence of over expressed HSD17β9 in HEK293S cells (Q92781 whole entry): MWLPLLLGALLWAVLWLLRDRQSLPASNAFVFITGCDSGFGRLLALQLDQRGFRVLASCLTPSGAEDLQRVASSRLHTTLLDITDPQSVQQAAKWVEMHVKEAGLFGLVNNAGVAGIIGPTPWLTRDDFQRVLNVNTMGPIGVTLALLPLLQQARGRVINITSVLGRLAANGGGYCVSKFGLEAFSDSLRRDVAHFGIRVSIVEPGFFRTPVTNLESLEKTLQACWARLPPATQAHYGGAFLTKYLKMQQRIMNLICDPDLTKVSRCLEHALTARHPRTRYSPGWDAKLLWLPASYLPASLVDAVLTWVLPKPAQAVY
# Sequence of recombinant 17bHSD4 (M1-N311) (P51659 1-311): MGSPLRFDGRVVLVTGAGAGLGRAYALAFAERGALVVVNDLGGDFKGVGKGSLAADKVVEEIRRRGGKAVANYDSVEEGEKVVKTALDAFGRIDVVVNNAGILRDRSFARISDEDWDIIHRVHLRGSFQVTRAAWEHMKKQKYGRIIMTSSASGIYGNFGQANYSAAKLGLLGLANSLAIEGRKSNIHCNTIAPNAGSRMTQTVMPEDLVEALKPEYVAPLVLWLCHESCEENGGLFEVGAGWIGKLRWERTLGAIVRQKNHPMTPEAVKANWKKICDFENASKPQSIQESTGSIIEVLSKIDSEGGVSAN
Compound,IC50 [1] [µM],IC50 [2] [µM],IC50 [3] [µM],IC50 [4] [µM]
"O=C(c1nnc(-c2ccc(F)c(O)c2)o1)N1CC[C@H](c2ccccc2)C1 [Example 1, (R)-(5-(4-Fluoro-3-hydroxyphenyl)-1,3,4-oxadiazol-2-yl)(3-phenylpyrrolidin-1-yl)methanone]",32.4,0.75,0.308,
"O=C(c1cc(-c2ccc(F)c(O)c2)no1)N1CCC(c2ccccc2)C1 (stereo not drawn) [Example 6, (3-(4-Fluoro-3-hydroxyphenyl)isoxazol-5-yl)(3-phenylpyrrolidin-1-yl)methanone]",89.1,0.98,0.041,> 50
"O=C(c1cc(-c2cc(F)c(F)c(O)c2F)on1)N1CC[C@H](c2ccc(Cl)cc2)C1 [Example 8, (R)-(3-(4-Chlorophenyl)pyrrolidin-1-yl)(5-(2,4,5-trifluoro-3-hydroxyphenyl)isoxazol-3-yl)methanone]",6.7,0.61,0.047,25
"N#Cc1c(C(=O)N2CCC(c3ccccc3)C2)noc1-c1ccc(F)c(O)c1 (stereo not drawn) [Example 13, 5-(4-Fluoro-3-hydroxyphenyl)-3-(3-phenylpyrrolidine-1-carbonyl)isoxazole-4-carbonitrile]",15.6,0.46,0.04,
"N#Cc1c(C(=O)N2CCN(c3nc4ccccc4o3)CC2)noc1-c1cc(F)c(F)c(O)c1F [Example 23, 3-(4-(Benzo[d]oxazol-2-yl)piperazine-1-carbonyl)-5-(2,4,5-trifluoro-3-hydroxyphenyl)isoxazole-4-carbonitrile]",33.9,0.93,0.141,> 50
"COc1ccc(OC2CCN(C(=O)c3noc(-c4cc(F)c(F)c(O)c4F)c3C#N)CC2)nc1 [Example 25, 3-(4-((5-Methoxypyridin-2-yl)oxy)piperidine-1-carbonyl)-5-(2,4,5-trifluoro-3-hydroxyphenyl)isoxazole-4-carbonitrile]",24.8,0.82,0.288,22.7
"CC[C@H]1CN(C(=O)c2noc(-c3cc(F)c(F)c(O)c3F)n2)CC(=O)N1 [Example 34, (S)-6-Ethyl-4-(5-(2,4,5-trifluoro-3-hydroxyphenyl)-1,2,4-oxadiazole-3-carbonyl)piperazin-2-one]",> 50,> 50,0.581,> 50

# Second part, the compound after the results:
IC50 [1] [µM],IC50 [2] [µM],IC50 [3] [µM],IC50 [4] [µM],Compound
42.2,2.22,0.64,4.2,"CC(C)C1COCCN1C(=O)c1noc(-c2cc(F)c(F)c(O)c2F)n1 (stereo not drawn) [Example 35, (3-Isopropylmorpholino)(5-(2,4,5-trifluoro-3-hydroxyphenyl)-1,2,4-oxadiazol-3-yl)methanone]"
> 50,1.32,1.03,> 50,"C[C@@H]1COC[C@H](C)N1C(=O)c1noc(-c2cc(F)c(F)c(O)c2F)n1 [Example 36, ((3R,5S)-3,5-Dimethylmorpholino)(5-(2,4,5-trifluoro-3-hydroxyphenyl)-1,2,4-oxadiazol-3-yl)methanone]"
> 50,1.48,1.75,> 50,"O=C(c1noc(-c2cc(F)c(F)c(O)c2F)n1)N1CCOCC1 [Example 39, Morpholino(5-(2,4,5-trifluoro-3-hydroxyphenyl)-1,2,4-oxadiazol-3-yl)methanone]"
> 50,1.46,0.7,> 50,"O=C(c1noc(-c2cc(F)c(F)c(O)c2F)n1)N1CCSCC1 [Example 40, Thiomorpholino(5-(2,4,5-trifluoro-3-hydroxyphenyl)-1,2,4-oxadiazol-3-yl)methanone]"
> 50,10,0.908,> 50,"N#Cc1cccc(C2CN(C(=O)c3noc(-c4cc(F)c(F)c(O)c4F)n3)CCN2)c1 (stereo not drawn) [Example 42, 3-(4-(5-(2,4,5-Trifluoro-3-hydroxyphenyl)-1,2,4-oxadiazole-3-carbonyl)piperazin-2-yl)benzonitrile]"
38.4,0.19,0.432,11.2,"O=C(c1noc(-c2cc(F)c(F)c(O)c2F)n1)N1CCCCC1 [Example 44, Piperidin-1-yl(5-(2,4,5-trifluoro-3-hydroxyphenyl)-1,2,4-oxadiazol-3-yl)methanone]"
> 50,0.51,0.466,4.1,"O=C(c1noc(-c2cc(F)c(F)c(O)c2F)n1)N1CCOC2(CCCC2)C1 [Example 45, (6-Oxa-9-azaspiro[4.5]decan-9-yl)(5-(2,4,5-trifluoro-3-hydroxyphenyl)-1,2,4-oxadiazol-3-yl)methanone]"
9.6,0.54,0.057,,"O=C(c1cc(-c2cc(F)c(F)c(O)c2F)on1)N1CC[C@H](c2ccccc2)C1 [Example 104, (R)-(3-Phenylpyrrolidin-1-yl)(5-(2,4,5-trifluoro-3-hydroxyphenyl)isoxazol-3-yl)methanone]"
